In patent publication US8273769B2, “Phenoxy acetic acid derivatives” (Merck Serono SA, priority 2009, dated 2012) one finds IC50 data, which are given here for 36 compounds.

Each structure is given as a SMILES string. pIC50: −log10 of the molar value.

For this assay, the target named is T1, CRTH2 (Homo sapiens, UniProt Q9Y5Y4).
T1 sequence (Q9Y5Y4 1-395): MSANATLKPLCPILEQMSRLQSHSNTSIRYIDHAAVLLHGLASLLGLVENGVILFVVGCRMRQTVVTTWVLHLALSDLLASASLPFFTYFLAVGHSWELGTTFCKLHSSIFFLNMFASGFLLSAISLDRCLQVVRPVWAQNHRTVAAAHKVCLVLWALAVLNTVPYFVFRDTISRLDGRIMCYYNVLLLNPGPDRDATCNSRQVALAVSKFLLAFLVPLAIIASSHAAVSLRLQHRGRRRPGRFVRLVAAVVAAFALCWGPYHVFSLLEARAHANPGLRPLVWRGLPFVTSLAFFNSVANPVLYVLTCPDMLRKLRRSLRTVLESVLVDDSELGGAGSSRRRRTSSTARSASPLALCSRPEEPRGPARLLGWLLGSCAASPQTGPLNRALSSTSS
The experiment in a line: Radioligand binding Scintillation Proximity Assay ([3H]PGD2, hCRTH2-CHO cell membranes). More on the design: host or cells: CHO cells. As to conditions: 1.5 nM [3H]PGD2, hCRTH2-CHO cell membranes, SPA. On the procedure:
Adherent CHO cells expressing hCRTH2 (Euroscreen, Belgium) were cultured in 225 cm^2 cell culture flasks (Corning, USA) in 30 ml of medium. After two rinses of phosphate buffered saline (PBS), cells were harvested in 10 ml of PBS containing 1 mM EDTA, centrifuged at 500×g for 5 min at 4° C. and frozen at −80° C. The pellet was re-suspended in 50 mM Tris-HCl, pH 7.4, 2 mM EDTA, 250 mM Sucrose, containing protease inhibitor cocktail tablets, (Complete EDTA-free, Roche, Germany) and incubated 30 min at 4° C. Cells were disrupted by nitrogen cavitation (Parr Instruments, USA) at 4° C. (800 p.s.i. for 30 min), and centrifuged at 500×g for 10 min at 4° C. Pellet containing nuclei and cellular debris was discarded and supernatant was centrifuged 60 min at 4° C. at 45000×g. Membrane pellet was re-suspended in storage buffer (10 mM HEPES/KOH pH 7.4, 1 mM EDTA, 250 mM sucrose, protease inhibitor cocktail tablets) using Dounce homogenization and frozen in liquid nitrogen, and stored at −80° C.
The inhibitory activity can be investigated by a radioligand binding Scintillation Proximity Assay (SPA) (Sawyer et al., Br. J. Pharmocol 2002, 137, 1163-72). The SPA radioligand binding assay was performed at room temperature in binding buffer (10 mM HEPES/KOH pH 7.4, 10 mM MnCl2, with protease inhibitor cocktail tablets), containing 1.5 nM [^3H]PGD2 (Perkin Elmer), 10-50 μg/ml of hCRTH2-CHO cell membrane protein and 2 mg/ml of Wheat-germ agglutinin Sintillation Proximity Assay beads (RPNQ0001, GE-Healthcare) in a final volume of 100 μl in 96 well plates (Corning, USA). Non-specific binding was determined in the presence of 10 μM PGD2 (Cayman, USA). Competing Compounds of Formula (I) were diluted in dimethylsulphoxide so that the total volume of dimethylsulfoxide was kept constant at 1% dimethylsulphoxide (Me2SO). Serial dilutions of 100 μM to 100 pM were prepared and 10 μl each of the compounds of Formula (I) stock solutions were added to the binding assay reagents and incubated for 90 min with agitation at room temperature. Binding activity was determined by using a 1450 Micro-beta scintillation counter (Wallac, UK).
On the technique in general: Scintillation proximity formats need no separation of bound from free tracer.
Compound `O=C(O)COc1ccc(Cl)cc1C#Cc1ccccc1` [Example 1, [4-chloro-2-(phenylethynyl)phenoxy]acetic acid] had a pIC50 of 7.12.

For the compound `O=C(O)COc1ccc(Cl)cc1C#Cc1ccc(Cl)cc1` [Example 2, {4-chloro-2-[(4-chlorophenyl)ethynyl]phenoxy}acetic acid], the pIC50 is 7.04.

In turn, `O=C(O)COc1ccc(Cl)cc1C#Cc1ccccc1F` [Example 5, {4-chloro-2-[(2-fluorophenyl)ethynyl]phenoxy}acetic acid] showed a pIC50 of 7.25.

Compound `COc1ccccc1C#Cc1cc(Cl)ccc1OCC(=O)O` [Example 6, {4-chloro-2-[(2-methoxyphenyl)ethynyl]phenoxy}acetic acid] gave a pIC50 of 6.64.

As to `O=C(O)COc1ccc(Cl)cc1C#Cc1cccc(C(F)(F)F)c1` [Example 7, (4-chloro-2-{[3-(trifluoromethyl)phenyl]ethynyl}phenoxy)acetic acid], the pIC50 was 6.95. This pIC50 lies 0.31 log units higher than the previous one.

Turning to `O=C(O)COc1ccc(Cl)cc1C#Cc1ccc(F)cc1F` [Example 8, {4-chloro-2-[(2,4-difluorophenyl)ethynyl]phenoxy}acetic acid], the pIC50 is 6.91.

`O=C(O)COc1ccc(Cl)cc1C#Cc1ccccc1C(F)(F)F` [Example 9, (4-chloro-2-{[2-(trifluoromethyl)phenyl]ethynyl}phenoxy)acetic acid] gave a pIC50 of 7.52.

For the compound `O=C(O)COc1ccc(Cl)cc1C#Cc1ccc(Cl)s1` [Example 10, {4-chloro-2-[(5-chloro-2-thienyl)ethynyl]phenoxy}acetic acid], the pIC50 is 6.57.

On to `Cn1ccnc1C#Cc1cc(Cl)ccc1OCC(=O)O` [Example 11, {4-chloro-2-[(1-methyl-1H-imidazol-2-yl)ethynyl]phenoxy}acetic acid], for which the pIC50 is 5.75.

`O=C(O)COc1ccc(Cl)cc1C#Cc1ccncc1` [Example 12, [4-chloro-2-(pyridin-4-ylethynyl)phenoxy]acetic acid] showed a pIC50 of 6.09.

As for `O=C(O)COc1ccc(Cl)cc1C#Cc1ccccn1` [Example 13, [4-chloro-2-(pyridin-2-ylethynyl)phenoxy]acetic acid], the pIC50 is 5.84.

Compound `O=C(O)COc1ccc(Cl)cc1C#Cc1cccnc1` [Example 14, [4-chloro-2-(pyridin-3-ylethynyl)phenoxy]acetic acid] gave a pIC50 of 6.84.

For `CCNS(=O)(=O)c1ccc(C)c(C#Cc2cc(Cl)ccc2OCC(=O)O)c1` [Example 16, [4-chloro-2-({5-[(ethylamino)sulfonyl]-2-methylphenyl}ethynyl)phenoxy]acetic acid], the pIC50 is 8.22. This pIC50 is 1.38 log units higher than that of the compound before.

Compound `CS(=O)(=O)c1cccc(C#Cc2cc(Cl)ccc2OCC(=O)O)c1` [Example 18, (4-chloro-2-{[3-(methylsulfonyl)phenyl]ethynyl}phenoxy)acetic acid] showed a pIC50 of 7.72.

Take `O=C(O)COc1ccc(Cl)cc1C#Cc1cccc(S(=O)(=O)CCCO)c1` [Example 19, [4-chloro-2-({3-[(3-hydroxypropyl)sulfonyl]phenyl}ethynyl)phenoxy]acetic acid]: the negative-log IC50 (pIC50) was 7.44.

Compound `N#Cc1ccc(F)c(C#Cc2cc(Cl)ccc2OCC(=O)O)c1` [Example 21, {4-chloro-2-[(5-cyano-2-fluorophenyl)ethynyl]phenoxy}acetic acid] showed a pIC50 of 7.34.

With `Cc1ncccc1C#Cc1cc(Cl)ccc1OCC(=O)O` [Example 22, {4-chloro-2-[(2-methylpyridin-3-yl)ethynyl]phenoxy}acetic acid], the pIC50 is 6.76.

`N#Cc1ccc(OCC(=O)O)c(C#Cc2ccccc2Cl)c1` [Example 23, {2-[(2-chlorophenyl)ethynyl]-4-cyanophenoxy}acetic acid] had a pIC50 of 7.52. Compared with the last compound, the pIC50 is 0.76 log units higher.

For the compound `Cc1nc(C)c(C#Cc2cc(Cl)ccc2OCC(=O)O)s1` [Example 24, {4-chloro-2-[(2,4-dimethyl-1,3-thiazol-5-yl)ethynyl]phenoxy}acetic acid], the pIC50 is 6.99.

Take `O=C(O)COc1ccc(Cl)cc1C#Cc1cc(CO)ccc1F` [Example 25, (4-chloro-2-{[2-fluoro-5-(hydroxymethyl)phenyl]ethynyl}phenoxy)acetic acid]: the pIC50 was 7.05.

In turn, `Cc1ccc(OCC(=O)O)c(C#Cc2ccccc2Cl)c1` [Example 27, {2-[(2-chlorophenyl)ethynyl]-4-methylphenoxy}acetic acid] had a pIC50 of 6.46.

`O=C(O)COc1ccc(Cl)cc1C#Cc1cccc(CO)c1F` [Example 28, (4-chloro-2-{[2-fluoro-3-(hydroxymethyl)phenyl]ethynyl}phenoxy)acetic acid] gave a pIC50 of 7.32. Compared with the last compound, the pIC50 is 0.86 log units higher.

`CCCCCCc1ccncc1C#Cc1cc(Cl)ccc1OCC(=O)O` [Example 29, {4-chloro-2-[(4-hexylpyridin-3-yl)ethynyl]phenoxy}acetic acid] had a pIC50 of 7.29.

In turn, `COCc1ccc(F)c(C#Cc2cc(Cl)ccc2OCC(=O)O)c1` [Example 30, (4-chloro-2-{[2-fluoro-5-(methoxymethyl)phenyl]ethynyl}phenoxy)acetic acid] gave a pIC50 of 7.07.

The compound `Cc1cc[n+]([O-])cc1C#Cc1cc(Cl)ccc1OCC(=O)O` [Example 31, {4-chloro-2-[(4-methyl-1-oxidopyridin-3-yl)ethynyl]phenoxy}acetic acid] had a pIC50 of 7.72. This pIC50 lies 0.65 log units higher than the previous one.

Take `COCc1ccc(C#Cc2cc(Cl)ccc2OCC(=O)O)c(F)c1` [Example 34, (4-chloro-2-{[2-fluoro-4-(methoxymethyl)phenyl]ethynyl}phenoxy)acetic acid]: the pIC50 was 7.59. This pIC50 and that of the compound before are within 0.2 log units of each other.

Compound `CS(=O)(=O)c1cncc(C#Cc2cc(Cl)ccc2OCC(=O)O)c1` [Example 36, (4-chloro-2-{[5-(methylsulfonyl)pyridin-3-yl]ethynyl}phenoxy)acetic acid] had a pIC50 of 7.12.

In the case of `O=C(O)COc1cc(F)ccc1C#Cc1ccccc1Cl` [Example 37, {2-[(2-chlorophenyl)ethynyl]-5-fluorophenoxy}acetic acid], the pIC50 was 5.23.

In turn, `CS(=O)(=O)Nc1cncc(C#Cc2cc(Cl)ccc2OCC(=O)O)c1` [Example 39, [4-chloro-2-({5-[(methylsulfonyl)amino]pyridin-3-yl}ethynyl)phenoxy]acetic acid] showed a pIC50 of 7.64. Against the preceding compound, the pIC50 is 2.41 log units higher.

As for `O=C(O)COc1ccc(C(F)(F)F)cc1C#Cc1ccccc1Cl` [Example 41, [2-[(2-chlorophenyl)ethynyl]-4-(trifluoromethyl)phenoxy]acetic acid], the pIC50 is 7.82.

Turning to `O=C(O)COc1ccccc1C#Cc1ccccc1Cl` [Example 45, {2-[(2-chlorophenyl)ethynyl]phenoxy}acetic acid], the negative-log IC50 (pIC50) was 6.02. Against the preceding compound, the pIC50 is 1.80 log units lower.

Turning to `O=C(O)COc1ccc(Cl)cc1C#Cc1cncc(S(=O)(=O)NCCO)c1` [Example 46, {4-chloro-2-[(5-{[(2-hydroxyethyl)amino]sulfonyl}pyridin-3-yl)ethynyl]phenoxy}acetic acid], the pIC50 is 6.49.

`CN(c1cncc(C#Cc2cc(Cl)ccc2OCC(=O)O)c1)S(C)(=O)=O` [Example 47, [4-chloro-2-({5-[methyl(methylsulfonyl)amino]pyridin-3-yl}ethynyl)phenoxy]acetic acid] showed a pIC50 of 6.47.

`CCS(=O)(=O)c1ccc(C)c(C#Cc2cc(Cl)ccc2OCC(=O)O)c1` [Example 50, (4-chloro-2-{[5-(ethylsulfonyl)-2-methylphenyl]ethynyl}phenoxy)acetic acid] showed a pIC50 of 7.96.

`Cc1ccc(S(=O)(=O)C(C)C)cc1C#Cc1cc(Cl)ccc1OCC(=O)O` [Example 51, (4-chloro-2-{[5-(isopropylsulfonyl)-2-methylphenyl]ethynyl}phenoxy)acetic acid] showed a negative-log IC50 (pIC50) of 8.10.

On to `Cc1ccc(S(=O)(=O)CCO)cc1C#Cc1cc(Cl)ccc1OCC(=O)O` [Example 52, [4-chloro-2-({5-[(2-hydroxyethyl)sulfonyl]-2-methylphenyl}ethynyl)phenoxy]acetic acid], for which the pIC50 was 7.60.

As a reminder, the pIC50 is −log10 of the IC50, conventionally taken in molar units. A lower pIC50 goes with a large IC50.
